In US20210270855A1, “PIP2 AS A MARKER FOR HDL FUNCTION AND CARDIOVASCULAR DISEASE RISK” (The Cleveland Clinic Foundation, priority 2016, published 2021):

How the values were obtained:
[1] = system: ABCA1 induced RAW264.7 cells; test: Cholesterol efflux to apoA1 from ABCA1-induced RAW264.7 cells; type: cell-based, mouse; settings: for ABCA1-dependent cholesterol efflux to apoA1: RAW264.7, 1 μM inhibitor, apoA1 chase
Procedure: (§1) Cell growth and ABCA1 induction: All cell culture incubations were performed at 37° C. in humidified 5% CO2 incubator. The growth media was Dulbecco's Modified Eagle Medium (DMEM) with 10% fetal calf serum, 100 μg/mL penicillin, 100 μg/mL […]. ABCA1 was induced in […] cells by 16-24 hr incubation with 0.3 mM 8Br-cAMP^34. ABCA1 was induced in BHK cells by 16-24 hr incubation with 10 nM mifepristone^31. Inducers were included in the media during subsequent assays. ABCA1 expression was confirmed by western blot using the AC10 antibody (Santa Cruz Biotech).
Cholesterol efflux assay: On day 1, cells were plated on 24-well plates at a density of 20,000 to 400,000 cells per well. On day 2, the cells were labeled with […] [^3H]cholesterol in DMEM containing 1% FBS. On day 3, the cells when indicated were treated with or without ABCA1 inducers in serum-free DMEM. On day 4 (or day 3 for HEK293 cells and ABCA1 stably transfected cells) the cells were washed and chased for 4-6 hr in serum-free DMEM in the presence or absence of 5 μg/ml apoA1. The radioactivity in the chase media was determined after brief centrifugation to pellet any residual debris. Radioactivity in the cells was determined by extraction in hexane:isopropanol (3:2) with the solvent evaporated in a scintillation vial prior to counting. The percent cholesterol efflux was calculated as 100×(medium dpm)/(medium dpm+cell dpm).
Tmem55b knockdown: The siRNA to mouse Tmem55b (Origene, #SR408149) and scrambled control were transfected in RAW264.7 cells using siTran 1.0 (Origene). The cellular protein extracts were prepared using NP-40 lysis buffer containing protease inhibitors. The knockdown efficacy was determined by western blot using anti Tmem55b antibody (Santa Cruz).

apoA1 = apoA1 (Homo sapiens, UniProt P02647); test: Fluorescence anisotropy, apoA1 binding to bodipy-labeled PIP2; settings: summary statement in the detailed description; read-out: dissociation constant of apoA1 binding to PIP2
immobilized apoA1 = biological target: T1, immobilized apoA1 (Homo sapiens, UniProt P02647); test: Surface plasmon resonance, lipid binding to immobilized apoA1; settings: biotinylated apoA1 on sensor chip; PC at 1 μM
T1 construct: ApoA1 was purified form human plasma^29, and dialyzed against PBS; from tissue; host or cells: human plasma
Procedure: (§2) Surface Plasmon resonance: Binding kinetic of PIP2 with different apolipoproteins was analyzed using a Biacore3000 instrument. Either biotinylated apoA1 or biotinylated PIP2 was immobilized on a streptavidin (SA) sensor chip (GE Healthcare). The immobilized apoA1 or PIP2 was stable over the course of the experiment and baseline drift was <10 response units (RU)/h after the washing with Hepes buffered saline (FIBS) buffer. Different concentrations of apoA1 or PIP2 were injected using the KINJECT procedure at flow-rate of 10 μl/min and dissociation was monitored by injecting FIBS buffer. The injections were performed in triplicate for each ligand concentration. For comparing binding kinetics of PIP2 with apoA1, apoA2 and apoE, these proteins were immobilized by covalent coupling on a CMS sensor chip (GE Healthcare) using EDC-NHS reagents. PIP2 was injected as described above. Corrected response data were fitted with BIAevaluation software version 4.01, and Kd values were calculated.

apoA2 = biological target: T2, apoA2 (Homo sapiens, UniProt P02652); test: Surface plasmon resonance, PIP2 binding to immobilized apoA2
T2 construct: purchased Origene TP721104
Procedure: as §2

apoE = biological target: T3, apoE (Homo sapiens, UniProt P02649); test: Surface plasmon resonance, PIP2 binding to immobilized apoE
T3 construct: purchased Origene TP723016
Procedure: as §2

[2] = system: ABCA1 expressing RAW264.7 cells; test: ApoA1 cell binding by flow cytometry, RAW264.7 cells; type: cell-based, mouse; settings: ABCA1-induced RAW264.7, apoA1 pre-incubated with PIP2 (5:1 mole ratio)
Procedure: as §1
Cell surface PS, PIP2, and apoA1 binding assays via flow cytometry: Cell surface PS levels were determined by flow cytometry after cell scraping in PBS, re-suspension in Annexin V binding buffer, and incubation with AnnexinV-Cy5 (Biovision) at room temperature for 5 minutes in the dark. Cell surface PIP2 levels were determined by flow cytometry by incubation with Alexa647 or FITC labeled anti-PIP2 antibody (Echelon) in phenol red-free, serum-free, DMEM at room temperature for 30 min. Human apoA1 was labeled with Alexa647 (Molecular Probes) on free amines using a 6:1 mole ratio of dye:apoA1. Alexa647-apoA1 binding was determined by flow cytometry after incubation with cells for 45 minutes at room temperature. […] Data was analyzed by Flowjo software and the median relative fluorescent intensities were compared.

T1 sequence (P02647 25-267 limits assumed): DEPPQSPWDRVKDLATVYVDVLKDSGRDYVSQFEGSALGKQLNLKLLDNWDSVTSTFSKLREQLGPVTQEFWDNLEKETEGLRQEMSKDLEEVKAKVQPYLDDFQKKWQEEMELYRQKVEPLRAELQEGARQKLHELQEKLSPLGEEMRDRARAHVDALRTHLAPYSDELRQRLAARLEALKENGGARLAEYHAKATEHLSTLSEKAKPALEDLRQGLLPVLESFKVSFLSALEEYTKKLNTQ
T2 sequence (P02652 19-100): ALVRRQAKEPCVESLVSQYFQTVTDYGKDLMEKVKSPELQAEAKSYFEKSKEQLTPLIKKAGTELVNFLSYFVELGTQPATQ
T3 sequence (P02649 19-317): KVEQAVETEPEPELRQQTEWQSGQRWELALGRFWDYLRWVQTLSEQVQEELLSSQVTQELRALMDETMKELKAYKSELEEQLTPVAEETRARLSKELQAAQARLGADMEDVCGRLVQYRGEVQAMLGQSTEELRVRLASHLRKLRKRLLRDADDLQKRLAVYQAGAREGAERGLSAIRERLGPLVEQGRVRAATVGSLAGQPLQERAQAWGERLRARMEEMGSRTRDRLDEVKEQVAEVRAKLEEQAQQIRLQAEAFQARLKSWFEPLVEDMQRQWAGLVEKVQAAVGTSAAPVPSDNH
Chain of apoA1 (P02647 25-267 limits assumed): as the sequence (P02647 25-267 limits assumed) above

In the case of `CC(=O)Nc1nc(C)c(-c2ccc(Cl)c(S(=O)(=O)NCCO)c2)s1` [PIK-93], the “ABCA1-dependent cholesterol efflux to apoA1” value [1] is reported as “decreased”.

For `CCCCC/C=C\C/C=C\C/C=C\C/C=C\CCCC(=O)O[C@H](COC(=O)CCCCCCCCCCCCCCCCC)COP(=O)(O)O[C@@H]1[C@H](O)[C@H](O)[C@@H](OP(=O)(O)O)[C@H](OP(=O)(O)O)[C@H]1O` [PIP2, phosphatidylinositol (4,5) bis-phosphate], the Kd (apoA1) was roughly 100 nM, the “binding to immobilized apoA1 (SPR)” value (immobilized apoA1) was “direct binding” and the “direct binding to apoA2 (SPR)” value (apoA2) was “direct binding”. For the same compound, the “direct binding to apoE (SPR)” value (apoE) was “direct binding”, the “cholesterol efflux to apoA1” value ([1]; ABCA1-induced RAW264.7, apoA1 5 μg/ml pre-incubated with PIP2 (PIP2:apoA1 5:1 mole ratio)) was “decreased” and the apoA1 binding [2] was “decreased”.

For `CC(C)(C)C(=O)Nc1ccc2c(c1)C(=O)C(=O)c1ccccc1-2` [SF1670], the “ABCA1-dependent cholesterol efflux to apoA1” value [1] was “decreased”.

phosphatidylcholine [PC] was tested, and the “binding to immobilized apoA1 (SPR)” value (immobilized apoA1) was “no binding”.
